Data published in the supplement of paper PMC10307832.

Tests used:
Experiment in all cases: relative viability (nuclei count vs DMSO), 5 days (fraction); higher = more cells survive
EHT 1864 + Linsitinib = compound: C1COCCN1CC2=CC(=O)C(=CO2)OCCCCCSC3=C4C=CC(=CC4=NC=C3)C(F)(F)F [EHT 1864] + C[C@]1(O)C[C@@H](c2nc(-c3ccc4ccc(-c5ccccc5)nc4c3)c3c(N)nccn32)C1 [Linsitinib] (partner 1 µM)
In short: (§1)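 Relative viability was taken as the ratio of nuclei in treated wells to nuclei in vehicle wells. Lung cancer cell lines in 1536-well plates received compounds by pin tool one day after seeding, either one drug alone or a fixed anchor-drug dose plus five library-drug doses (not always all listed) in √10 steps. Nuclei were counted on 4× images after 5 days of treatment, and values are medians of duplicate plates.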

EHT 1864 + Navitoclax = compound: C1COCCN1CC2=CC(=O)C(=CO2)OCCCCCSC3=C4C=CC(=CC4=NC=C3)C(F)(F)F [EHT 1864] + CC1(C)CCC(c2ccc(Cl)cc2)=C(CN2CCN(c3ccc(C(=O)NS(=O)(=O)c4ccc(N[C@H](CCN5CCOCC5)CSc5ccccc5)c(S(=O)(=O)C(F)(F)F)c4)cc3)CC2)C1 [Navitoclax] (partner 0.5 µM)
In short: as §1

EHT 1864 + Foretinib = compound: C1COCCN1CC2=CC(=O)C(=CO2)OCCCCCSC3=C4C=CC(=CC4=NC=C3)C(F)(F)F [EHT 1864] + COc1cc2c(Oc3ccc(NC(=O)C4(C(=O)Nc5ccc(F)cc5)CC4)cc3F)ccnc2cc1OCCCN1CCOCC1 [Foretinib] (partner 0.25 µM)
In short: as §1

EHT 1864 + Luminespib = compound: C1COCCN1CC2=CC(=O)C(=CO2)OCCCCCSC3=C4C=CC(=CC4=NC=C3)C(F)(F)F [EHT 1864] + CCNC(=O)c1noc(-c2cc(C(C)C)c(O)cc2O)c1-c1ccc(CN2CCOCC2)cc1 [Luminespib] (partner 0.01 µM)
In short: as §1

| Cell Line | relative viability (EHT 1864 + Linsitinib; first compound 0.04 µM) | relative viability (EHT 1864 + Linsitinib; first compound 0.1265 µM) | relative viability (EHT 1864 + Linsitinib; first compound 0.4 µM) | relative viability (EHT 1864 + Linsitinib; first compound 1.265 µM) | relative viability (EHT 1864 + Linsitinib; first compound 4 µM) | relative viability (EHT 1864 + Navitoclax; first compound 0.04 µM) | relative viability (EHT 1864 + Navitoclax; first compound 0.1265 µM) | relative viability (EHT 1864 + Navitoclax; first compound 0.4 µM) | relative viability (EHT 1864 + Navitoclax; first compound 1.265 µM) | relative viability (EHT 1864 + Navitoclax; first compound 4 µM) | relative viability (EHT 1864 + Foretinib; first compound 0.04 µM) | relative viability (EHT 1864 + Foretinib; first compound 0.1265 µM) | relative viability (EHT 1864 + Foretinib; first compound 0.4 µM) | relative viability (EHT 1864 + Foretinib; first compound 1.265 µM) | relative viability (EHT 1864 + Foretinib; first compound 4 µM) | relative viability (EHT 1864 + Luminespib; first compound 0.04 µM) | relative viability (EHT 1864 + Luminespib; first compound 0.4 µM) | relative viability (EHT 1864 + Luminespib; first compound 1.265 µM) | relative viability (EHT 1864 + Luminespib; first compound 4 µM) | relative viability (EHT 1864 + Luminespib; first compound 0.1265 µM) |
| --- | --- | --- | --- | --- | --- | --- | --- | --- | --- | --- | --- | --- | --- | --- | --- | --- | --- | --- | --- | --- |
| PC-14 | 0.955 | 0.973 | 0.954 | 0.985 | 0.99 | 1.06 | 0.957 | 0.952 | 1.02 | 1.06 | 0.997 | 0.906 | 0.994 | 0.932 | 0.878 | 0.121 | 0.199 | 0.196 | 0.143 |  |
| RERF-LC-KJ | 0.874 | 0.884 | 0.861 | 0.861 | 0.847 | 0.985 | 0.829 | 0.823 | 0.931 | 0.888 | 1.01 | 0.838 | 0.834 | 0.896 | 0.893 | 1.34 | 1.17 | 1.29 | 1.06 | 1.02 |
| SK-LU-1 | 1.09 | 1 | 0.95 | 1.11 | 1.12 | 0.867 | 0.768 | 0.824 | 1.01 | 0.744 | 0.843 | 0.772 | 0.779 | 0.775 | 0.746 | 0.184 | 0.214 | 0.229 | 0.219 | 0.181 |
| SK-MES-1 | 1.06 | 1.06 | 1.17 | 1.16 | 1.09 | 1.3 | 1.13 | 1.29 | 1.31 | 1.17 | 0.951 | 0.866 | 1.06 | 1.11 | 0.799 | 0.596 | 0.748 | 0.726 | 0.798 | 0.64 |
| SW 1573 | 0.923 | 0.943 | 0.812 | 0.814 | 0.709 | 0.999 | 0.978 | 1.01 | 0.958 | 0.725 | 0.805 | 0.722 | 0.816 | 0.746 | 0.896 | 0.24 | 0.31 | 0.215 | 0.187 | 0.356 |
| UMC-11 | 1.02 | 0.978 | 0.986 | 0.962 | 0.963 | 0.345 | 0.294 | 0.27 | 0.304 | 0.322 | 0.935 | 0.962 |  | 1.07 | 1.11 | 1.03 |  | 1.02 | 1.12 | 0.925 |
